Reference: patent US5444084A, “Substituted heterocyclic derivative having squalene epoxidase inhibition action and its use” (Banyu Pharmaceutical Co., Ltd., priority 1992, dated 1995)

Tests used:
Human squalene epoxidase = biological target: T1, Human squalene epoxidase (Homo sapiens, UniProt Q14534); assay: Human squalene epoxidase inhibition action; type: biochemical; conditions: solubilized Hep-G2 microsome fraction, 8 μM 3H-squalene, 37° C., 60 minutes, read-out: Inhibition rate at 3 μM concentration
T1 construct: The resultant supernatant is used as the squalene epoxidase fraction in the later-described test; endogenous in cells; host or cells: Hep-G2 human hepatoma cells (microsomes solubilized with Triton X-100)
Experimental: Squalene epoxidase inhibition action
(1) Preparation of squalene epoxidase
Human squalene epoxidase is prepared in accordance with the process disclosed in J. Biol. Chem., 245, 1670 (1970); ibid., 250, 1572 (1975).
Namely, human hepatoma (Hep-G2) cells are cultured at 37° C. under air containing 5% carbon dioxide. After completion of the culture, the cells are scraped and collected by centrifugation. The cells are suspended in 0.1M Tris-HCl buffer (pH 7.5) (1×10^8 cells/ml), the suspension is homogenized and centrifuged at 9750 Xg for 10 minutes, and then the sediment is washed with 0.1M Tris-HCl buffer (pH 7.5) and centrifuged at 105,000 Xg for 1 hour. The resultant microsome is suspended in 0.1M Tris-HCl buffer (pH 7.5) so that the protein amount becomes 20 mg/ml, and solubilized by stirring the suspension under ice cooling in the presence of 1% Triton X-100. After this solubilization treatment, the concentration of Triton X-100 is diluted to 0.125% with 1 mM EDTA and 1 mM dithiothreitol, and the dilution is centrifuged at 105,000 Xg for 1 hour. The resultant supernatant is used as the squalene epoxidase fraction in the later-described test.
(2) Assay of squalene epoxidase activity
Assay of human squalene epoxidase activity is carried out according to the method disclosed in J. Biol. Chem., 245, 1670 (1970).
Namely, 3 μl of a dimethyl sulfoxide solution of a test chemical is added to a solution consisting of 0.2 ml of the squalene epoxidase fraction [protein amount 0.4 mg, 0.1% Triton X-100, […] Tris-HCl buffer (pH 7.5)] prepared in (1), 100 μM FAD, 1 mM NADPH, 1 mM EDTA and 8 μM ^3 H-squalene-Tween 80 suspension to make the total volume 0.3 ml, and the mixture is subjected to reaction with shaking at 37° C. for 60 minutes. 0.3 ml of 10% potassium hydroxide-methanol solution is added to discontinue the reaction, and the mixture is heated at 75° C. for 1 hour. Then the non-saponified substance is extracted with petroleum ether and the extract is concentrated to dryness under a nitrogen stream. The resultant residue is dissolved in a small amount of ethyl ether, pre-coated Silicagel TCL is spotted with the extract, and development is carried out with benzeneethyl acetate (99.5:0.5). The position of the ^3 H-squalene-2,3 -epoxide in the TLC is confirmed using ergosterol acetate as a marker, and the ^3 H-squalene-2,3-epoxide portion in the TLC is cut out. The TLC piece is immersed in a toluene series scintillator and measurement is made using a liquid scintillation counter. Thereby, the inhibition rates (%) against squalene epoxidase at 3 μM concentration of compounds of this invention are determined, and the results are shown in the following Table 1.

cholesterol biosynthesis = assay: Inhibition test of in vivo cholesterol biosynthesis in rat; design: species or system rat (female SD); conditions: 3 mg/kg oral, n = 5, rat; for 14C-cholesterol, dpm: dpm of produced 14C-cholesterol in 1 ml of plasma, control values 2282-3218 dpm; for Cholesterol biosynthesis inhibition rate: versus control group
Experimental: Inhibition test of in vivo cholesterol biosynthesis
In this in vivo test, female SD rats (5 weeks old) are used. The rats are raised for 9 days under an environment where illumination is applied with reversed day and night (dark from 6 a.m. to 6 p.m.), and meanwhile they can freely ingest a solid feed and water. A test chemical is orally administered two hours before dark 6 o'clock when cholesterol biosynthesis becomes maximum. The compound is dissolved in a middle-chain fatty acid triglyceride, and orally administered at 3 mg/kg in an amount of 0.5 ml/100 g body weight. Further, the same volume of the solvent (vehicle) used is administered to control animals. […] after the administration of the test chemical, 20μ Ci/100 g body weight of ^14 C-sodium acetate (56 m Ci/m mole) is intraperitoneally administered to the rats, respectively. At dark 6 o'clock blood is sampled from the abdominal artery of each animal under ether anesthesia and centrifuged to separate the plasma.
2 ml of 15% potassium hydroxide-methanol solution is added per ml of the plasma, and the mixture is heated at 75° C. for 3 hours to carry out saponification. Each sample is extracted twice, each time with 2 ml of petroleum ether, and the extract is washed with 2 ml of distilled water. Finally each extract is evaporated to dryness under a nitrogen stream.
The resultant residue is dissolved in a small amount of ethyl ether, and a pre-coated silica gel TLC is spotted with the total amount of the solution. This plate is developed with a solvent system of hexane/ethyl ether/acetic acid (85:15:4). Coloring is carried out with iodine, and radioactivity at the cholesterol part is assayed using a liquid scintillation counter.
The results (Table 2) are expressed by dpm values of produced ^14 C-cholesterol existing in 1 ml of each plasma. Further, the inhibition of cholesterol biosynthesis is calculated by comparing the amounts of ^14 C-cholesterol biosynthesis between the test groups and the control group.

rats (SD male) = assay: Subacute toxicity test; type: in vivo, rat (SD male); conditions: 300 mg/kg per day oral for 7 days, 3 animals per group, 0.5% aqueous methylcellulose suspension
Experimental: Subacute toxicity test example
The compound of Example 34 was suspended in 0.5% aqueous methylcellulose solution and orally administered to groups of rats (SD male), each group consisting of 3 animals, at a rate of 300 mg/kg per day for 7 days.

T1 sequence (Q14534 whole entry): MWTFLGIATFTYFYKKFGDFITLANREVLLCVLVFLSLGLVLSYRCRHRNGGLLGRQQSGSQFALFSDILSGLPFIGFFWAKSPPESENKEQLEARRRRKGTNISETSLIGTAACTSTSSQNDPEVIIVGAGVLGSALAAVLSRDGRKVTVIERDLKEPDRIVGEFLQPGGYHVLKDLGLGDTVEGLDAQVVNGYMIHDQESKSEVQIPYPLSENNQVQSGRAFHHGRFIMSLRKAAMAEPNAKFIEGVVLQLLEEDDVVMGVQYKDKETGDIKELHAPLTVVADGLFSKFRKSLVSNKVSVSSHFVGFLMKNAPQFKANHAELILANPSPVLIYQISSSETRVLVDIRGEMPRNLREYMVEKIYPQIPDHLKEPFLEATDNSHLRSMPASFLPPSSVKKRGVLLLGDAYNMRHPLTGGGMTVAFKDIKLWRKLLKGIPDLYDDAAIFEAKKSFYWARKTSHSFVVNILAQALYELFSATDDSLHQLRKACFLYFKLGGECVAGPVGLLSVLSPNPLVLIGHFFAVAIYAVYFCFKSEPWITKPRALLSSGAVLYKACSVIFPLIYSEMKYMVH

SMILES | inhibition at 3 µM (Human squalene epoxidase) | 14C-cholesterol, dpm (cholesterol biosynthesis) | Cholesterol biosynthesis inhibition rate (cholesterol biosynthesis) | death and other toxic symptoms (rats (SD male))
CC(C)(C)C#C/C=C/C/C(=C\CCC/C=C/c1cccc(-c2ccsc2)c1)CO [Example 1] | 100% | 275 dpm | 91% | –
CC(C)(C)C#C/C=C/C/C(=C\CCCCOc1cccc(-c2ccsc2)c1)CO [Example 2, (E,E)-2-(6,6-dimethyl-2-hepten-4-ynyl)-7-[3-(3-thienyl)phenoxy]-2-hepten-1-ol] | 100% | – | – | –
CC(C)(C)C#C/C=C/C/C(=C\c1cccc(COc2cccc(-c3ccsc3)c2)c1)CO [Example 4, (E,E)-2-(6,6-dimethyl-2-hepten-4-ynyl)-3-[3-[3-(3-thienyl)phenoxymethyl]phenyl]-2-propen-1-ol] | 100% | – | – | –
CC(C)(C)C#C/C=C/C/C(=C\c1cccc(OCc2cc(-c3ccsc3)cs2)c1)CO [Example 5, (E,E)-2-(6,6-dimethyl-2-hepten-4-ynyl)-3-[3-[4-(3-thienyl)-2-thienylmethoxy]phenyl]-2-propen-1-ol] | 100% | – | – | –
CC(C)(C)C#C/C=C/C/C(=C\c1cccc(/C=C/c2cccc(-c3ccsc3)c2)c1)CO [Example 6, (E,E,E)-2-(6,6-dimethyl-2-hepten-4-ynyl)-3-[3-[2-[3-(3-thienyl)phenyl]ethenyl]phenyl]-2-propen-1-ol] | 100% | 871 dpm | 73% | –
COC(C)(C)C#C/C=C/C/C(=C\c1cccc(/C=C/c2cccc(-c3ccsc3)c2)c1)CO [Example 8, (E,E,E)-2-(6-methoxy-6-methyl-2-hepten-4-ynyl)-3-[3-[2-[3-(3-thienyl)phenyl]ethenyl]phenyl]-2-propen-1-ol] | 100% | – | – | –
COC(C)(C)C#CC#CC/C(=C\c1cccc(/C=C/c2cccc(-c3ccsc3)c2)c1)CO [Example 10, (E,E)-2-(6-methoxy-6-methyl-2,4-heptadiynyl)-3-[3-[2-[3-(3-thienyl)phenyl]ethenyl]phenyl]-2-propen-1-ol] | 100% | – | – | –
CC(C)(C)C#C/C=C/CC(CO)Cc1cccc(OCc2cccc(-c3ccsc3)c2)c1 (stereo not drawn) [Example 11, (E)-2-(6,6-dimethyl-2-hepten-4-ynyl)-3-[3-[3-(3-thienyl)phenylmethoxy]phenyl]propanol] | 88% | – | – | –
CC(C)(C)C#C/C=C/CC(CO)Cc1cccc(/C=C/c2cccc(-c3ccsc3)c2)c1 (stereo not drawn) [Example 12, (E,E)-2-(6,6-dimethyl-2-hepten-4-ynyl)-3-[3-[2-[3-(3-thienyl)phenyl]ethenyl]phenyl]propanol] | 100% | 1208 dpm | 61% | –
C/C(=C/CCC/C=C/c1cccc(-c2ccsc2)c1)C/C=C/C#CC(C)(C)C [Example 18, 3-[3-[(1E,6Z,9E)-7,13,13-trimethyltetradeca-1,6,9-trien-11-ynyl]phenyl]thiophene] | 99% | – | – | –
C/C(=C/c1cccc(COc2cccc(-c3ccsc3)c2)c1)C/C=C/C#CC(C)(C)C [Example 21, 3-[3-[3-[(1Z,4E)-2,8,8-trimethylnona-1,4-dien-6-ynyl]phenylmethoxy]phenyl]thiophene] | 100% | – | – | –
C/C(=C/c1cccc(OCc2cc(-c3ccsc3)cs2)c1)C/C=C/C#CC(C)(C)C [Example 22, 2-[3-[(1Z,4E)-2,8,8-trimethylnona-1,4-dien-6-ynyl]phenoxymethyl]-4-(3-thienyl)thiophene] | 100% | – | – | –
C/C(=C/c1cccc(/C=C/c2cccc(-c3ccsc3)c2)c1)C/C=C/C#CC(C)(C)C [Example 23, 3-[3-[2-[3-[(1Z,4E)-2,8,8-trimethylnona-1,4-dien-6-ynyl]phenyl]ethenyl]phenyl]thiophene] | 100% | – | – | –
COC/C(=C/CCC/C=C/c1cccc(-c2ccsc2)c1)C/C=C/C#CC(C)(C)C [Example 29, (E,E,E)-3-[3-(7-methoxymethyl-13,13-dimethyltetradeca-1,6,9-trien-11-ynyl)phenyl]thiophene] | 100% | – | – | –
COC/C(=C/CCCCOc1cccc(-c2ccsc2)c1)C/C=C/C#CC(C)(C)C [Example 30, (E,E)-3-[3-(6-methoxymethyl-12,12-dimethyltrideca-5,8-dien-10-ynyloxy)phenyl]thiophene] | 100% | – | – | –
COCC(C/C=C/C#CC(C)(C)C)Cc1cccc(OCc2cccc(-c3ccsc3)c2)c1 (stereo not drawn) [Example 32, (E)-3-[3-[3-(2-methoxymethyl-8,8-dimethyl-4-nonen-6-ynyl)phenoxymethyl]phenyl]thiophene] | 100% | – | – | –
COC/C(=C/c1cccc(OCc2cc(-c3ccsc3)cs2)c1)C/C=C/C#CC(C)(C)C [Example 33, (E,E)-2-[3-(2-methoxymethyl-8,8-dimethylnona-1,4-dien-6-ynyl)phenoxymethyl]-4-(3-thienyl)thiophene] | 100% | – | – | –
COCC(C/C=C/C#CC(C)(C)C)Cc1cccc(/C=C/c2cccc(-c3ccsc3)c2)c1 (stereo not drawn) [Example 34, (E,E)-3-[3-[2-[3-(2-methoxymethyl-8,8-dimethyl-4-nonen-6-ynyl)phenyl]ethenyl]phenyl]thiophene] | 100% | 347 dpm | 85% | death and other toxic symptoms were not observed at all
COC/C(=C/c1cccc(CCc2cccc(-c3ccsc3)c2)c1)C/C=C/C#CC(C)(C)C [Example 38, (E,E)-3-[3-[2-[3-(2-methoxymethyl-8,8-dimethylnona-1,4-dien-6-ynyl)phenyl]ethyl]phenyl]thiophene] | 100% | 350 dpm | 85% | –
CSC/C(=C/CCCCOc1cccc(-c2ccsc2)c1)C/C=C/C#CC(C)(C)C [Example 42, (E,E)-3-[3-(12,12-dimethyl-6-methylthiomethyltrideca-5,8-dien-10-ynyloxy)phenyl]thiophene] | 100% | – | – | –
CC(O)C(C/C=C/C#CC(C)(C)C)Cc1cccc(/C=C/c2cccc(-c3ccsc3)c2)c1 (stereo not drawn) [Example 43, (E,E)-3-(6,6-dimethyl-2-hepten-4-ynyl)-4-[3-[2-[3-(3-thienyl)phenyl]ethenyl]phenyl]-2-butanol] | 100% | – | – | –
C=CC(C/C=C/C#CC(C)(C)C)Cc1cccc(/C=C/c2cccc(-c3ccsc3)c2)c1 (stereo not drawn) [Example 44] | 100% | – | – | –
